Experimental data published in ChEMBL document CHEMBL6087476, “Positive Charge-Concentrated Dimeric Lipopeptides with Enhanced Protease Resistance: A Potential Solution for Systemic Bacterial Infections” (J Med Chem, 2025).
Converted amounts (≈) assume the structure as drawn. The source made the active and inactive calls. No cut-off for these calls is given here.

How the values were obtained:
Acinetobacter baumannii [1] = test: Antimicrobial activity against Acinetobacter baumannii AB1901 assessed as increase in absorbance incubated for 20 to 22 hrs; type: functional; conditions: time 20-22 hrs
Acinetobacter baumannii [2] = test: Antimicrobial activity against Acinetobacter baumannii AB1902 assessed as increase in absorbance incubated for 20 to 22 hrs; type: functional; conditions: time 20-22 hrs
Pseudomonas aeruginosa [3] = test: Antimicrobial activity against Pseudomonas aeruginosa 25349 assessed as increase in absorbance incubated for 20 to 22 hrs; type: functional; conditions: time 20-22 hrs
Staphylococcus aureus [4] = test: Antimicrobial activity against Staphylococcus aureus 11011 assessed as increase in absorbance incubated for 20 to 22 hrs; type: functional; conditions: time 20-22 hrs
Escherichia coli [5] = test: Resistance fold, ratio of MIC for Escherichia coli ATCC 25922 measured after 7 day passage period to MIC for Escherichia coli ATCC 25922; type: functional
Escherichia coli [6] = test: Antimicrobial activity against Escherichia coli ATCC 25922 assessed as increase in absorbance incubated for 20 to 22 hrs; type: functional; conditions: time 20-22 hrs
Escherichia coli [7] = test: Antimicrobial activity against Escherichia coli K88 assessed as increase in absorbance incubated for 20 to 22 hrs; type: functional; conditions: time 20-22 hrs
Escherichia coli [8] = test: Antimicrobial activity against Escherichia coli K99 assessed as increase in absorbance incubated for 20 to 22 hrs; type: functional; conditions: time 20-22 hrs
Salmonella typhimurium [9] = test: Antimicrobial activity against Salmonella typhimurium 7731 assessed as increase in absorbance incubated for 20 to 22 hrs; type: functional, Salmonella enterica subsp. enterica serovar Typhimurium; conditions: Salmonella enterica, time 20-22 hrs
Salmonella typhimurium [10] = test: Antimicrobial activity against Salmonella typhimurium 14028 assessed as increase in absorbance incubated for 20 to 22 hrs; type: functional, Salmonella enterica subsp. enterica serovar Typhimurium; conditions: Salmonella enterica, time 20-22 hrs
Pseudomonas aeruginosa [11] = test: Antimicrobial activity against Pseudomonas aeruginosa 27853 assessed as increase in absorbance incubated for 20 to 22 hrs; type: functional; conditions: time 20-22 hrs
Staphylococcus aureus [12] = test: Antimicrobial activity against Staphylococcus aureus 29213 assessed as increase in absorbance incubated for 20 to 22 hrs; type: functional; conditions: time 20-22 hrs
Enterococcus faecalis = test: Antimicrobial activity against Enterococcus faecalis 29212 assessed as increase in absorbance incubated for 20 to 22 hrs; type: functional; conditions: time 20-22 hrs
Staphylococcus aureus [13] = test: Antimicrobial activity against Staphylococcus aureus 25923 assessed as increase in absorbance incubated for 20 to 22 hrs; type: functional; conditions: time 20-22 hrs
Staphylococcus aureus [14] = test: Antimicrobial activity against methicillin-resistant Staphylococcus aureus 43300 assessed as increase in absorbance incubated for 20 to 22 hrs; type: functional; conditions: time 20-22 hrs
[15] = system: Staphylococcus epidermidis; test: Antimicrobial activity against Staphylococcus epidermidis 12228 assessed as increase in absorbance incubated for 20 to 22 hrs; type: functional; conditions: time 20-22 hrs
[16] = Hemolytic activity in healthy human RBC assessed as hemolysis incubated for 1 hr by microplate reader; type: toxicity, cell-based; conditions: erythrocyte
[17] = Cytotoxicity against porcine IPEC-J2 cells assessed as cell death measured after 18 to 24 hrs by MTT assay; type: functional; conditions: Sus scrofa, time 18-24 hrs
RAW264.7 = test: Cytotoxicity against mouse RAW264.7 cells assessed as cell death measured after 18 to 24 hrs by MTT assay; type: functional; conditions: time 18-24 hrs
HEK-293T = test: Cytotoxicity against human HEK293T cells assessed as cell death measured after 18 to 24 hrs by MTT assay; type: functional; conditions: time 18-24 hrs
Escherichia coli [18] = test: Antimicrobial activity against Escherichia coli ATCC 25922 assessed as increase in absorbance incubated for 20 to 22 hrs in presence of Fe3+ physiological salt; type: functional, organism-based; conditions: time 20-22 hrs
Escherichia coli [19] = test: Antimicrobial activity against Escherichia coli ATCC 25922 assessed as increase in absorbance incubated for 20 to 22 hrs in presence of Mg2+ physiological salt; type: functional, organism-based; conditions: time 20-22 hrs
Escherichia coli [20] = test: Antimicrobial activity against Escherichia coli ATCC 25922 assessed as increase in absorbance incubated for 20 to 22 hrs in presence of […] physiological salt; type: functional, organism-based; conditions: time 20-22 hrs
Escherichia coli [21] = test: Antimicrobial activity against Escherichia coli ATCC 25922 assessed as increase in absorbance incubated for 20 to 22 hrs in presence of NH4+ physiological salt; type: functional, organism-based; conditions: time 20-22 hrs
Escherichia coli [22] = test: Antimicrobial activity against Escherichia coli ATCC 25922 assessed as increase in absorbance incubated for 20 to 22 hrs in presence of K+ physiological salt; type: functional, organism-based; conditions: time 20-22 hrs
Escherichia coli [23] = test: Antimicrobial activity against Escherichia coli ATCC 25922 assessed as increase in absorbance incubated for 4 hrs in presence of 12.5% serum; type: functional, organism-based
Escherichia coli [24] = test: Antimicrobial activity against Escherichia coli ATCC 25922 assessed as increase in absorbance incubated for 4 hrs in presence of 25% serum; type: functional, organism-based
Escherichia coli [25] = test: Antimicrobial activity against Escherichia coli ATCC 25922 assessed as increase in absorbance incubated for 4 hrs in presence of 50% serum; type: functional, organism-based
Escherichia coli [26] = test: Antimicrobial activity against Escherichia coli ATCC 25922 assessed as increase in absorbance at 8 mg/ml incubated for 8 hrs in presence of trypsin; type: functional, organism-based
Escherichia coli [27] = test: Antimicrobial activity against Escherichia coli ATCC 25922 assessed as increase in absorbance at 8 mg/ml incubated for 8 hrs in presence of chymotrypsin; type: functional, organism-based
Escherichia coli [28] = test: Antimicrobial activity against Escherichia coli ATCC 25922 assessed as increase in absorbance at 8 mg/ml incubated for 8 hrs in presence of pepsin; type: functional, organism-based
Escherichia coli [29] = test: Antibiofilm activity against Escherichia coli ATCC 25922 biofilm assessed as inhibition of biofilm formation at 2 uM; type: functional, organism-based
Escherichia coli [30] = test: Antibiofilm activity against Escherichia coli ATCC 25922 biofilm assessed as removal of matured biofilm at 16 uM; type: functional, organism-based
Lipopolysaccharide (LPS) = test: Binding affinity to Escherichia coli O111:B4 Lipopolysaccharide by fluorescent probe BODIPYTR-cadaverine (BC) assay; conditions: dose 1-16 µM
Escherichia coli [31] = test: Antimicrobial activity against Escherichia coli ATCC 25922 assessed as increase in absorbance at MIC concentration in presence of < 8 ug/ml Lipopolysaccharide incubated for 8 hrs; type: functional, organism-based; conditions: dose < 8.0 µg/ml
Escherichia coli [32] = test: Antimicrobial activity against Escherichia coli ATCC 25922 assessed as increase in absorbance at MIC concentration in presence of […] ug/ml Lipopolysaccharide incubated for 8 hrs; type: functional, organism-based; conditions: dose 64.0 µg/ml
Cell membrane [33] = test: Induction of Outer membrane permeability in Escherichia coli ATCC 25922 incubated for 30 mins by N-phenyl-1-naphthylamine (NPN) uptake assay; type: subcellular; conditions: dose 1-16 µM
Cell membrane [34] = test: Induction of depolarization of cytoplasmic membrane (CM) in Escherichia coli ATCC 25922 assessed as fluorescence changes at 1/2 to 3 times of MIC by fluorescent probe DiSC3-5 assay; type: subcellular; conditions: time 1000-3000 sec
Cell membrane [35] = test: Induction of depolarization of cytoplasmic membrane (CM) in Escherichia coli ATCC 25922 assessed as fluorescence changes at 1/2 to 3 times of MIC measured after 1000 to 3000 seconds by fluorescent probe DiSC3-5 assay; type: subcellular; conditions: time 1000-3000 sec
Cell membrane [36] = test: Induction of cytoplasmic membrane (CM) permeabilization in Escherichia coli ATCC 25922 assessed as utilization of ONPG at 1/2 MIC; type: subcellular
Escherichia coli [37] = test: Induction of ROS accumulation in Escherichia coli ATCC 25922 at 4 uM incubated for 30 mins by DCFH-DA assay; type: functional, organism-based
Escherichia coli [38] = test: Inhibition of respiratory chain dehydrogenase (RCD) activity in Escherichia coli ATCC 25922 at 4 uM incubated for 90 mins by TTC assay
Escherichia coli [39] = test: Reduction in intracellular ATP level in Escherichia coli ATCC 25922 at 2 uM measured after 1 hr incubation by Enhanced ATP assay kit; type: functional; set-up: scale not given: the % may be the effect or the level left
Escherichia coli [40] = test: Induction of membrane damage in Escherichia coli ATCC 25922 assessed as damaged membrane surface (irregular vesicles protrusions) at 8 uM measured after 1 hr incubation by SEM analysis; type: functional, organism-based
Escherichia coli [41] = test: Induction of membrane damage in Escherichia coli ATCC 25922 assessed as damaged membrane surface by analysing leakage (hollow interiors) at 8 uM measured after 1 hr incubation by TEM analysis; type: functional, organism-based
Escherichia coli [42] = test: Induction of membrane damage in Escherichia coli ATCC 25922 assessed as ruptured membrane by analysing red fluorescence at 8 uM measured after 1 hr incubation by PI - live and dead staining based fluorescence microscopy; type: functional, organism-based
Escherichia coli [43] = test: Induction of membrane damage in Escherichia coli ATCC 25922 assessed as ruptured membrane by analysing green fluorescence at 8 uM measured after 1 hr incubation by SYTO - live and dead staining based fluorescence microscopy; type: functional, organism-based
Escherichia coli [44] = test: Resistance fold, ratio of MIC for Escherichia coli ATCC 25922 measured after 30 day passage period to MIC for Escherichia coli ATCC 25922; type: functional

CC[C@H]1OC(=O)[C@H](C)[C@@H](O[C@H]2C[C@@](C)(OC)[C@@H](O)[C@H](C)O2)[C@H](C)[C@@H](O[C@@H]2O[C@H](C)C[C@H](N(C)C)[C@H]2O)[C@](C)(O)C[C@@H](C)C(=O)[C@H](C)[C@@H](O)[C@]1(C)O [ERYTHROMYCIN]
MIC (Acinetobacter baumannii [1]): 64 µM (≈ 47 µg/mL)
MIC (Acinetobacter baumannii [2]): > 64 µM
MIC (Pseudomonas aeruginosa [3]): 64 µM (≈ 47 µg/mL)
MIC (Staphylococcus aureus [4]): > 64 µM

CN(C)[C@@H]1C(O)=C(C(N)=O)C(=O)[C@@]2(O)C(O)=C3C(=O)c4c(O)cccc4[C@@](C)(O)[C@H]3C[C@@H]12 [TETRACYCLINE]
fold change (FC) (Escherichia coli [5]): 8

CCCCCCCCCC(=O)NCCCC[C@H](NC(=O)[C@@H](N)CSSC[C@H](N)C(=O)N[C@@H](CCCCNC(=O)CCCCCCCCC)C(=O)NCC(=O)NCC(=O)NCC(=O)N[C@H](CCCNC(=N)N)C(=O)N[C@@H](CCCNC(=N)N)C(=O)N[C@@H](CCCNC(=N)N)C(=O)N1CCC[C@H]1C(=O)O)C(=O)NCC(=O)NCC(=O)NCC(=O)N[C@H](CCCNC(=N)N)C(=O)N[C@@H](CCCNC(=N)N)C(=O)N[C@@H](CCCNC(=N)N)C(=O)N1CCC[C@H]1C(=O)O
MIC (Escherichia coli [6]): 4 µM (≈ 9.12 µg/mL)
MIC (Escherichia coli [7]): 4 µM (≈ 9.12 µg/mL)
MIC (Escherichia coli [8]): 8 µM (≈ 18.2 µg/mL)
MIC (Salmonella typhimurium [9]): 8 µM (≈ 18.2 µg/mL)
MIC (Salmonella typhimurium [10]): 4 µM (≈ 9.12 µg/mL)
MIC (Pseudomonas aeruginosa [11]): 8 µM (≈ 18.2 µg/mL)
MIC (Staphylococcus aureus [12]): 8 µM (≈ 18.2 µg/mL)
MIC (Enterococcus faecalis): 8 µM (≈ 18.2 µg/mL)
MIC (Staphylococcus aureus [13]): 8 µM (≈ 18.2 µg/mL)
MIC (Staphylococcus aureus [14]): 8 µM (≈ 18.2 µg/mL)
MIC [15]: 8 µM (≈ 18.2 µg/mL)
HC10 [16]: 256 µM
IC10 [17]: 256 µM
IC10 (RAW264.7): 256 µM
IC10 (HEK-293T): 256 µM
MIC (Acinetobacter baumannii [1]): 4 µM (≈ 9.12 µg/mL)
MIC (Acinetobacter baumannii [2]): 16 µM (≈ 36.5 µg/mL)
MIC (Pseudomonas aeruginosa [3]): 4 µM (≈ 9.12 µg/mL)
MIC (Staphylococcus aureus [4]): 8 µM (≈ 18.2 µg/mL)
Activity (Escherichia coli [18]): Active
Activity (Escherichia coli [19]): Active
Activity (Escherichia coli [20]): Active
Activity (Escherichia coli [21]): Active
Activity (Escherichia coli [22]): Active
Activity (Escherichia coli [23]): Active
Activity (Escherichia coli [24]): Active
Activity (Escherichia coli [25]): Active
Activity (Escherichia coli [26]): Active; Negligible Alteration In Mic Values Found
Activity (Escherichia coli [27]): Active; Negligible Alteration In Mic Values Found
Activity (Escherichia coli [28]): Active; Negligible Alteration In Mic Values Found
Activity (Escherichia coli [29]): Active
Activity (Escherichia coli [30]): Active
Activity (Lipopolysaccharide (LPS)): Dose-dependent-effect
Activity (Escherichia coli [31]): Active
Activity (Escherichia coli [32]): inactive
Activity (Cell membrane [33]): Dose-dependent-effect
Activity (Cell membrane [34]): Time-dependent-effect
Activity (Cell membrane [35]): Dose-dependent-effect
Activity (Cell membrane [36]): Active
Activity (Escherichia coli [37]): Active
inhibition (Escherichia coli [38]): Active
Activity (Escherichia coli [39]): ~40%
Activity (Escherichia coli [40]): Active
Activity (Escherichia coli [41]): Active
Activity (Escherichia coli [42]): Active
Activity (Escherichia coli [43]): Active
fold change (FC) (Escherichia coli [44]): <=2

CN[C@H](CC(C)C)C(=O)N[C@H]1C(=O)N[C@@H](CC(N)=O)C(=O)N[C@H]2C(=O)N[C@H]3C(=O)N[C@H](C(=O)N[C@H](C(=O)O)c4cc(O)cc(O)c4-c4cc3ccc4O)[C@H](O)c3ccc(c(Cl)c3)Oc3cc2cc(c3O[C@@H]2O[C@H](CO)[C@@H](O)[C@H](O)[C@H]2O[C@H]2C[C@](C)(N)[C@H](O)[C@H](C)O2)Oc2ccc(cc2Cl)[C@H]1O [VANCOMYCIN]
MIC (Acinetobacter baumannii [1]): 32 µM (≈ 46.4 µg/mL)
MIC (Acinetobacter baumannii [2]): > 64 µM
MIC (Pseudomonas aeruginosa [3]): > 64 µM
MIC (Staphylococcus aureus [4]): > 64 µM
